{"source": "patent US9724380B2", "about": "“Method and compositions for synchronizing time of insemination in gilts” (JBS UNITED ANIMAL HEALTH II LLC, priority 2012, dated 2017)", "assay_type_in_all_cases": "in vivo, swine", "key": {"gilts [1]": {"tested_on": "gilts", "experiment": "Example 3: estrus observation post-MATRIX", "details": "younger gilts at the second site, all treatments", "protocol": "Three hundred twelve (312) gilts were fed MATRIX® as a top-dress for 14 days at the recommended rate of 15 mg/gilt/day. The last feeding of MATRIX® was at 6:30 AM (Day 0). One hundred four gilts were allocated to each of the following treatments: • 1. Group 1, Controls (n=104); MATRIX® treated, but not OvuGel™ treated, inseminated daily during estrus, as is normally practiced at the site (average of 1.8 inseminations per gilt). • 2. Group 2 (n=104); OvuGel™ treated at 7:00 am (+/−1.5 hours) on Day 5 and inseminated at 2 to 4 hours post-OvuGel™ treatment on Day 5 if expressing estrus. All gilts inseminated once on Day 6, 26 hours (+/−2 hrs) post-OvuGel™ treatment, regardless of estrus status. • 3. Group 3 (n=104); OvuGel™ treated at 7:00 am (+/−1.5 hours) on Day 5 and inseminated once at 2 to 4 hours post-OvuGel™ treatment on Day 5 and again on Day 6, 26 hours (+/−2 hrs) post-OvuGel™ treatment, without regard to estrus on either day.\n(§1) Gilts were housed in individual pens. Boars were housed at least 12 m away and downwind. […] To facilitate detection of estrus, a mature boar was walked slowly in the alley in front of the gilt's pen, exposing each gilt to visual, auditory and olfactory signals from the boar for up to 5 minutes. […]"}, "gilts [2]": {"tested_on": "gilts", "experiment": "Example 5: ovulation monitored by transrectal ultrasonography after 100, 200 or 400 mcg triptorelin gel intravaginally at 120 h after MATRIX withdrawal", "details": "all treatments", "protocol": "(§2) All gilts were individually fed MATRIX® as a top-dress for 14 or 15 days at the recommended rate of 15 mg/gilt/day. Gilts were withdrawn from MATRIX® feeding (last top-dress in the morning on Day 0) and allocated to each of the following treatments. Controls were vehicle gel treated (vehicle gel without triptorelin) at 120 (+/−2) hours following MATRIX® withdrawal (last top dress). The other gilts were given 100, 200 or 400 mcg triptorelin as the acetate in a methylcellulose gel formulation 120 (+/−2) hours following MATRIX® withdrawal. The four treatments were: • 1. Vehicle gel (VG): vehicle gel without triptorelin at 120 (+/−2) hours after MATRIX® withdrawal. • 2. TG 100: 100 mcg (2 mL 50 mcg/mL) triptorelin gel at 120 (+/−2) hours after MATRIX® withdrawal. • 3. TG 200: 200 mcg (2 mL 100 mcg/mL) triptorelin gel at 120 (+/−2) hours after MATRIX® withdrawal. • 4. TG 400: 400 mcg (2 mL 200 mcg/mL) triptorelin gel at 120 (+/−2) hours after MATRIX® withdrawal.\n(§3) Triptorelin (pGlu-His-Trp-Ser-Tyr-D-Trp-Leu-Arg-Pro-Gly-NH2) was supplied in the acetate form, from Bachem, Torrance, Calif. (Item H-4075 CGMP grade). Triptorelin gel (100-400 mcg/2 mL dose) was formulated by Argenta (Auckland, NZ) in a gel composed of Methocel Premium A4000 (Dow Chemical), citrate buffer (pH 5.5), NaCl, methionine, and methyl and propyl parabens. Fifty-four milliliters of triptorelin gel (100 mcg triptorelin acetate/mL) was packaged in Amber Borosilicate Glass Serum Vials (610206-50) with a Gray Butyl Pharmaceutical Serum Vial Stopper (73828A-SS) with a Standard Aluminum Seal (SAS20NAT). […] MATRIX® was supplied as the US commercially available form.\nOvulation was monitored twice on Day 5 (8 hours and 16 hours post-treatment) and every 8 hours on Day 6 and Day 7 or until ovulation was confirmed or 176 hours following last MATRIX® feeding. The ovulatory status of all gilts was monitored by transrectal ultrasonography. An Aloka 500 ultrasound machine is used for this purpose, with a 7.5 MHz linear array transducer attached to a fixed-angle PVC stabilizing rod to facilitate insertion into the rectum. The transducer and PVC rod are coated with a gynecological lubricant and gently inserted into the rectum until the ovaries can be visualized, one at a time. The diameters of the three largest follicles were recorded (to the nearest 0.1 mm) at each scanning. A gilt was declared to have ovulated when the number of large follicles (≧6.5 mm) fell to less than 3.\nA single 2 mL dose of triptorelin gel or vehicle gel was deposited within approximately 1-2 cm posterior to the cervix with a catheter similar to those used for artificial insemination. The dose was delivered using a standard multi-dose applicator attached to the catheter. A new disposable sheath, which surrounds the catheter, was used for each gilt."}, "gilts [3]": {"tested_on": "gilts", "experiment": "Example 5: estrus observation after triptorelin gel dose groups", "details": "all treatments (did not differ among treatments)", "protocol": "as §2, §3\nFor post-treatment estrus detection, gilts were housed in individual pens. Boars were housed in separate rooms, and/or at least 12 m away and downwind. To elicit signs of estrus, a mature boar was walked slowly in the alley in front of the gilts' crates, exposing each test gilt to visual, auditory and olfactory signals from the boar for up to 5 minutes. In keeping with standard practice at commercial farms, while the boar was near the front of the gilt's crate, estrus was tested by an experienced person applying back pressure to the midsection of the gilt combined with side rubbing. Estrus was confirmed when a gilt stood rigidly to the back pressure, with no vocalization and with some indication of an ear reflex. Gilts were not exposed to boars during the first three days after withdrawal of MATRIX® (Day 0 to Day 2). Estrus detection was performed daily on all gilts from Day 3 to Day 7.\nA single 2 mL dose of triptorelin gel or vehicle gel was deposited within approximately 1-2 cm posterior to the cervix with a catheter similar to those used for artificial insemination. The dose was delivered using a standard multi-dose applicator attached to the catheter. […]"}, "gilts [4]": {"tested_on": "gilts", "experiment": "Example 2: estrus observation post-MATRIX", "details": "older gilts at the first site, all treatments", "protocol": "Two hundred ninety-seven (297) gilts were fed MATRIX® as a top-dress for 14 days at the recommended rate of 15 mg/gilt/day. The last feeding of MATRIX® was at 5:30 AM (Day 0). Approximately one hundred gilts were allocated to each of the following treatments: • 1. Group 1, Controls (n=100); MATRIX® treated, but not OvuGel™ treated, inseminated daily during estrus, as is normally practiced (average of 1.9 inseminations per gilt). • 2. Group 2 (n=98); OvuGel™ treated at 6:30 am (+/−1 hr) on Day 5 and inseminated at 2 to 11 hours post-OvuGel™ treatment on Day 5 if expressing estrus. All gilts inseminated once on Day 6, 26 hours (+/−2.5 hrs) post-OvuGel™ treatment, regardless of estrus status. • 3. Group 3 (n=99); OvuGel™ treated at 6:30 am (+/−1 hr) on Day 5 and inseminated once at 2.5 to 9.5 hours post-OvuGel™ treatment on Day 5 and again on Day 6, 26.5 hours (+/−3 hrs) post-OvuGel™ treatment, without regard to estrus on either day.\nas §1"}}}
{"compound": "C=CC[C@]1(O)CC[C@H]2[C@@H]3CCC4=CC(=O)CCC4=C3C=C[C@@]21C", "note": "[MATRIX®, altrenogest]", "values": [{"measurement": "gilts that showed estrus on Day 5", "setting": "gilts [1]", "result": 7.4, "unit": "%"}, {"measurement": "gilts ovulated within the experimental period, overall", "setting": "gilts [2]", "result": 94, "unit": "%"}, {"measurement": "interval from last feeding of MATRIX to estrus", "setting": "gilts [3]", "result": "146 ± 22", "unit": "h"}, {"measurement": "percentage of gilts which expressed estrus after the last feeding of MATRIX", "setting": "gilts [3]", "result": 97, "unit": "%"}, {"measurement": "gilts that first expressed estrus on Day 5 post-MATRIX, average", "setting": "gilts [4]", "result": 30.1, "unit": "%"}]}
